Molecules are shown by their SMILES.

Common to all, as to type: functional
Experiment [1] has as its system Mus musculus. Description: Antimalarial activity tested against trophozoite induced Plasmodium berghei in mice (Mus musculus) expressed as change in mean survival time after a single dose of 10 mg/kg (subcutaneously). Conditions: route subcutaneous.
Experiment [2] in a line: Antimalarial activity tested against trophozoite induced Plasmodium berghei in mice (Mus musculus) expressed as change in mean survival time after a single dose of 40 mg/kg (subcutaneously). Conditions: route subcutaneous.
Experiment [3] relates to Plasmodium berghei. Description: Change in mean survival time of trophozoite-induced Plasmodium berghei infection after 160 mg/kg subcutaneous dose.
Experiment [4] relates to Plasmodium berghei. Description: Change in mean survival time of trophozoite-induced Plasmodium berghei infection after 80 mg/kg subcutaneous dose.
The test system of experiment [5] is Mus musculus. Kind of experiment: Number of mice surviving at 60 days postinfection when administered as a single dose of 640 mg/kg (sc) 72-h post infection (delta MST).
Experiment [6] deals with Plasmodium berghei. Kind of experiment: Change in mean survival time of trophozoite-induced Plasmodium berghei infection after 20 mg/kg subcutaneous dose.
Experiment [7] concerns Mus musculus. Kind of experiment: Number of mice surviving at 60 days postinfection when administered as a single dose of 40 mg/kg (sc) 72-h post infection (delta MST).
Experiment [8] deals with Mus musculus. Kind of experiment: Antimalarial activity tested against trophozoite induced Plasmodium berghei in mice (Mus musculus) expressed as change in mean survival time after a single dose of 640 mg/kg (subcutaneously). Conditions: route subcutaneous.
Experiment [9] relates to Mus musculus. Description: Number of mice surviving at 60 days postinfection when administered as a single dose of 320 mg/kg (sc) 72-h post infection (delta MST).
The test system of experiment [10] is Mus musculus. Kind of experiment: Number of mice surviving at 60 days postinfection when administered as a single dose of 80 mg/kg (sc) 72-h post infection (delta MST).
The subject of experiment [11] is Mus musculus. Kind of experiment: Antimalarial activity tested against trophozoite induced Plasmodium berghei in mice (Mus musculus) expressed as change in mean survival time after a single dose of 320 mg/kg (subcutaneously). Conditions: route subcutaneous.
In experiment [12] the test system is Mus musculus. Description: Number of mice surviving at 60 days postinfection when administered as a single dose of 160 mg/kg (sc) 72-h post infection (delta MST).
The subject of experiment [13] is Plasmodium berghei. Kind of experiment: Change in mean survival time of trophozoite-induced Plasmodium berghei infection after 40 mg/kg subcutaneous dose.
For experiment [14], the system named is Mus musculus. Kind of experiment: Number of mice surviving at 60 days postinfection when administered as a single dose of 640 mg/kg (sc) 72-h post infection.
In experiment [15] the test system is Mus musculus. Kind of experiment: Number of mice surviving at 60 days postinfection when administered as a single dose of 320 mg/kg (sc) 72-h post infection.
Experiment [16] concerns Mus musculus. Kind of experiment: Number of mice surviving at 60 days postinfection when administered as a single dose of 160 mg/kg (sc) 72-h post infection.
For experiment [17], the system named is Mus musculus. Kind of experiment: Number of mice surviving at 60 days postinfection when administered as a single dose of 20 mg/kg (sc) 72-h post infection (delta MST).

On to `CCc1cc(Nc2ccnc3cc(Cl)ccc23)cc(CN(CC)CC)c1O`, for which the “Delta MST” value was found to be 6.1 days in experiment [1]; 12.4 days in experiment [2]; 14.4 days in experiment [3]; 20.7 days in experiment [4]; 12.1 days in experiment [6]; 27.4 days in experiment [8]. Besides, in [11], the “Delta MST” value was 34.4 days. For the same compound, the Cures in [5] stood at 4; in experiment [7], 1; in experiment [9], 4; in [10], 2; in experiment [12], 4.
On to `CCN(CC)Cc1cc(Nc2cc[n+]([O-])c3cc(Cl)ccc23)cc(C)c1O`, for which the “Delta MST” value was determined as 1.4 days in experiment [1]; 14.3 days in experiment [13]; 13 days in experiment [3]; 11.5 days in experiment [4]; 7.6 days in experiment [6]; 19 days in experiment [11]. Also, the Cures in [14] was determined as 5; in experiment [7] it was 2; in [9], 3; in experiment [10], 1; in [12], 3.
As for `CCN(CC)Cc1cc(Nc2ccnc3cc(Cl)ccc23)cc(C)c1O`, the “Delta MST” value turned out to be 7 days in experiment [1]; 13 days in [13]; 20.7 days in experiment [3]; 13.7 days in [4]; 10.4 days in experiment [6]; 17.2 days in experiment [11]. The Cures in experiment [14] amounted to 5; in [7], 1; in [9], 3; in experiment [10], 4; in [12], 4.
As for `CCN(CC)Cc1cc(Nc2ccnc3cc(Cl)ccc23)cc(Sc2ccc(Cl)cc2)c1O`, the “Delta MST” value was 7.3 days in experiment [13]; 10.1 days in experiment [3]; 8.8 days in [4]; 3 days in experiment [6]; 13.1 days in experiment [8].
Regarding `CCN(CC)Cc1cc(Nc2ccnc3cc(Cl)ccc23)cc(C2CCCCC2)c1O`, the Cures in [15] turned out to be 5; in experiment [16] it was 5; in [14] it was 5; in experiment [10], 2. For the same compound, the “Delta MST” value stood at 5.7 days in experiment [13], 10.6 days in experiment [4] and 0.5 days in experiment [6].
With `CCN(CC)Cc1cc(Nc2cc[n+]([O-])c3cc(Cl)ccc23)cc(C(C)C)c1O`, the “Delta MST” value in experiment [1] worked out at 3 days; in experiment [13], 15.5 days; in experiment [3], 21.7 days; in experiment [4], 15.5 days; in experiment [6] it was 11.8 days; in [8], 23.7 days. Also, the “Delta MST” value in [11] stood at 29.7 days. Moreover, the Cures in experiment [5] is 4; in experiment [7] it was 1; in experiment [9] it was 1; in experiment [10], 1; in [12], 1.
In the case of `CCC(C)c1cc(Nc2ccnc3cc(Cl)ccc23)cc(CN(CC)CC)c1O` (stereo not drawn), the “Delta MST” value in experiment [1] is 9.8 days; in [13] it was 27.7 days; in [3] it was 40.2 days; in experiment [4] it was 29.4 days; in experiment [6], 18 days. Moreover, the Cures in experiment [15] came out at 5; in experiment [14], 5; in experiment [7], 2; in experiment [10], 2; in [12] it was 1.
With `CCC(C)c1cc(Nc2cc[n+]([O-])c3cc(Cl)ccc23)cc(CN(CC)CC)c1O` (stereo not drawn), the “Delta MST” value in experiment [1] was 4.6 days; in experiment [13] it was 20.9 days; in [3] it was 30 days; in experiment [4], 21.9 days; in experiment [6] it was 12.6 days; in experiment [11] it was 39.7 days. Further, the Cures stood at 5 in experiment [14], 3 in experiment [9] and 2 in experiment [12].
Consider `CC(C)(C)NCc1cc(Nc2ccnc3cc(Cl)ccc23)cc(-c2ccc(Cl)cc2)c1O` [TEBUQUINE], for which the “Delta MST” value in [13] was 19.9 days; in experiment [3] it was 14.9 days; in experiment [4], 14.9 days; in experiment [6] it was 14.9 days; in experiment [8] it was 17.1 days; in experiment [11], 16.4 days. Further, the Cures in experiment [7] came out at 4; in [17] it was 3; in [9], 1; in [10], 3; in [12], 2.

The values are drawn from ChEMBL document CHEMBL1123903, “Synthesis and antimalarial effects of 4-[(7-chloro-4-quinolinyl)amino]-2-[(diethylamino)methyl] -6-alkylphenols and their N omega-oxides” (1987).
